The text below walks through data of US20230018737A1, “AN IN VITRO KIT AND A METHOD FOR D[…] TRANSPLANTS AND/OR AUTOIMMUNE DISEASES AND/OR TUMOR DISEASES AND/OR VA[…] A MESSENGER-SUBSTANCE-CONTAINING SUPERNATANT, CELL-[…], AND A COMBINATION, FOR USE IN D[…] TRANSPLANTS AND/OR AUTOIMMUNE DISEASES AND/OR TUMOR DISEASES AND/OR VACCINATIONS” (HOT Screen GmbH, priority 2019, published 2023).

One experiment has as its system whole blood cultures. The experiment is classed as cell-based, human.
The subject of the next experiment is T cells. The experiment is classed as cell-based, human.

“And” between values parts separate entries of the source, which are not always exact repeats. Identical values can stand only once.

In the case of tetanus toxoid [TeTo], the IL-10 in the experiment on whole blood cultures is 8.47 pg/mL and 8.24 pg/mL. In the experiment with T cells, the IL-2 was determined as 12.1 pg/mL, the “IL-2 Conc” value is on record as 12.1 pg/mL and the “IL-2 SI (stimulation index)” value is given as 314.
